Laboratory results taken from patent US20230305023A1, “METHODS OF TREATMENT AND DIAGNOSTIC OF PATHOLOGICAL CONDITIONS ASSOCIATED WITH INTENSE STRESS” (INSERM (INSTITUT NATIONAL DE LA SANTÉ ET DE LA RECHERCHE …, priority 2020, published 2023).
Entries after “also recorded” stand apart in the source; their conditions may differ.

How the values were obtained:
C57BL/6J mice = assay: Adaptive vs maladaptive (PTSD-like) fear memory, fear conditioning procedure; type: in vivo
Source text: Surgical procedure. Male C57BL/6J mice {n=20 in Experiment 1 (FIGS. 3a-d), n=75 in Experiment 2 (FIG. 4), n=40 in Experiment 3 (FIGS. 5a-d) and n=48 in Experiment 4 (FIGS. 5e-h)} 3-4 months old (Charles River Laboratory, France) were used. Mice were surgically-implanted bilaterally 1 mm above the dorsal hippocampus (A/P, -2 mm; M/L, ±1.3 mm; D/V, 0.9 mm; relative to dura and bregma) following to Franklin and Paxinos’s mouse brain atlas (25) then allowed to recover for 8 days before the behavioral experiments.
Adaptive vs maladaptive (PTSD-like) fear memory. […] In contrast, Cort-injected mice will display a maladaptive (PTSD-like) memory attested by an abnormally high fear response to the irrelevant tone (cue-based hypermnesia) together with a decreased conditioned fear to the conditioning context (contextual amnesia) (5). • Memory tests - After fear conditioning, each animal was returned to its home cage and 24 h later, all mice were submitted to two memory tests during which freezing behavior, defined as a lack of any movement except for respiratory-related movements (29), was measured and used as an index of conditioned fear.
Drug injections. Immediately after the acquisition of fear conditioning, mice were randomly divided into groups firstly according to first their systemic injection of Cort and secondly their specific intra-hippocampal infusion. […] Vehicle (NaCl 0.9%, n=8), 2. […] Vehicles (aCSF + NaCl 0.9%, n=15), 2. […] Vehicles (aCSF + NaCl 0.9%, n=8), 2. […] Vehicles (aCSF + DMSO, n=12), 2.
PAI-1 and BDNF were diluted in artificial CSF (aCSF) and Tiplaxtinin in 1.6 % dimethyl sulfoxide (DMSO) and then diluted in aCSF. Bilateral infusions of 0.3 µl/side were administered into the dorsal hippocampus immediately after acquisition of fear conditioning at a constant rate (0.1 µl/min).

PC12 cells = assay: PAI-1 expression in PC12 cells treated with corticosterone (qPCR, western blot); type: cell-based, rat; settings: Cort 100 and 1000 nM, 3 h
Method: Chemicals. […] Millipore (USA) provided the recombinant human BDNF (CAS Nb 218441-99-7, #GF029, 100 ng/side) and tPA inhibitor; stable recombinant mutant of human Type 1 Plasminogen Activator Inhibitor (PAI-1; CAS Nb: 140208-23-7, #528208, ranging from 30 to 240 ng/side) (16;18). The small-molecule inhibitor of PAI-1 activity Tiplaxtinin (PAI-039; CAS Nb: 393105-53-8, #1383, 5 ng/side) was provided by Axon MEDCHEM (The Netherlands).
Cell culture. PC12 cell line (ATCC CRL-1721) derived from a transplantable rat pheochromocytoma was used (14;16). […]
Quantitative PCR analysis. […] RNA was processed and analyzed using an adapted version of published methods (23). cDNA was synthesized from 2 µg of total RNA using RevertAid Premium Reverse Transcriptase (Fermentas, Thermo Fisher Scientific, USA) and primed with oligo-dT primers (Fermentas, Thermo Fisher Scientific, USA) and random primers (Fermentas, Thermo Fisher Scientific, USA). qPCR was perfomed using a LightCycler® 480 Real-Time PCR System (Roche, Meylan, France). qPCR reactions were done in duplicate for each sample, using transcript-specific primers, cDNA (4 ng) and LightCycler 480 SYBR Green I Master (Roche) in a final volume of 10 µl. The PCR data were exported and analyzed in a computer-based tool (Gene Expression Analysis Software Environment) developed at the Neurocentre Magendie (France). […]

[1] = tested on: dorsal hippocampal slices; assay: Protein expression in dorsal hippocampal slices incubated with corticosterone (western blot); type: cell-based, Sprague-Dawley rats
Method: Briefly, adult male Sprague-Dawley rats (2-3 months old n=18, Charles River Laboratory, France) were used. Rats were then anesthetized with isoflurane and transcardially perfused with nearly frozen modified artificial cerebrospinal fluid (CSF) with 3 mM kynurenic acid. The modified CSF for perfusion contained: (in mM) 87 NaCl, 75 Sucrose, 25 Glucose, 5 KCl, 21 MgCl2, 0.5 CaCl2 and 1.25 NaH2PO4. After perfusion, the brains were quickly removed and sliced (300 µm) in the coronal plane using a vibratome (Campden Instruments, UK). Immediately after cutting, slices were stored for 40 min at 32° C. in CSF ((in mM): 130 NaCl, 11 Glucose, 2.5 KCl, 2.4 MgCl2, 1.2 CaCl2, 23 NaHCO3, 1.2 NaH2PO4), equilibrated with 95% O2 / 5% CO2 then stored at room temperature for the rest of the experiment. […] Dorsal hippocampi were isolated, and proteins were extracted as previously described (14;16).
Protein extraction from brain tissues and immunoblotting analysis. A detailed description of protein extraction and immunoblotting analysis has been reported previously (14-16;20;21). Briefly, protein sample extracts from PC12 cells and mouse and rat hippocampi were performed in RIPA buffer containing protease and phosphatase inhibitors (#P8340 and #P0044, Sigma, USA) before being subjected to immunoblotting experiments. […] Rabbit polyclonal anti-PAI-1 antibodies were from Lifespan Biosciences (LSBio#C81062, 1/1000, WA, USA) and Epitomics (#3917-1, 1/3000, CA, USA), anti-tPA (#T5600-05G; 1/5000) was from US Biologicals (MA, USA), anti-Erk1/2^MAPK (#06-182; 1/50000) was from Millipore (MA, USA), anti-Phospho-Erk1/2^MAPK (#9101S; 1/1000) was from CST (MA, USA). Rabbit monoclonal antibodies anti-Phospho-Erk1/2^MAPK (#4370; 1/5000) was from CST (MA, USA), anti-Phospho-TrkB (#2149-1; 1/5000) was from Epitomics (CA, USA), anti-TrkB (#610101; 1/2000) was from BD Biosciences (NJ, USA). Mouse monoclonal anti-Neuronal Class III β-Tubulin (TUJ1) (#MMS-435P; 1/20000) was from Eurogentec (Belgium), anti-α-tubulin (#N356, 1/50000) was from Amersham Life Sciences (Del, USA). CST provided secondary antibodies: anti-rabbit IgG, HRP-linked antibody (#7074, 1/5000) and anti-mouse IgG, HRP-linked antibody (#7076, 1/20000). In all experiments, βIII-tubulin or α-tubulin measures were used as a loading control. X-Ray films (Kodak, USA) were quantified by densitometry (optical density; OD) using a GS-800 scanner coupled with Quantity One software (Bio-Rad, CA, USA).

rat PAI-1 = target: T1, rat PAI-1 (Rattus norvegicus, UniProt P20961); settings: cited from earlier work
T1 sequence (P20961 24-402): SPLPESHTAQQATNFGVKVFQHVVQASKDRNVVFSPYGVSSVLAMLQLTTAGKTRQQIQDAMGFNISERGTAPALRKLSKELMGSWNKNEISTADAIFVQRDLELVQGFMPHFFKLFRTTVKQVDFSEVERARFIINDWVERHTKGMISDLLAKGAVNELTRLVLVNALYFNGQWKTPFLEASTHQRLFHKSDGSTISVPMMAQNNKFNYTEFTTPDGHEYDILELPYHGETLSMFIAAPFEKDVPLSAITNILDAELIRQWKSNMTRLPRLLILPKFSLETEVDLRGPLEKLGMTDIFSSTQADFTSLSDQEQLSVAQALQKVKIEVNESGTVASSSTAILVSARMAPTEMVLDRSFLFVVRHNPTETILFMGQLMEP

mouse PAI-1 = target: T2, mouse PAI-1 (Mus musculus, UniProt P22777); settings: cited from earlier work
T2 sequence (P22777 23-402): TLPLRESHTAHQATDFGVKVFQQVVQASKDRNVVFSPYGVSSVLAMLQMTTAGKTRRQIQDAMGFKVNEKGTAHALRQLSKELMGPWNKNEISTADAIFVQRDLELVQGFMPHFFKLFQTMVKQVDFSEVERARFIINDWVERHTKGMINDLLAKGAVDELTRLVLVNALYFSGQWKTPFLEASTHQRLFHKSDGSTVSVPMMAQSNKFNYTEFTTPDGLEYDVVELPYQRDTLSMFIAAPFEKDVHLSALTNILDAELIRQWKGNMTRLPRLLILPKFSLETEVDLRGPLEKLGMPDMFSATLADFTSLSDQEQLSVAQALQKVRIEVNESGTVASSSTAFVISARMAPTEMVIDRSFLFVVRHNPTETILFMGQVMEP

rat [2] = settings: cited from earlier work
rat [3] = settings: in vivo; cited from earlier work
PAI-1 = PAI-1 (Homo sapiens, UniProt P05121); settings: dual mechanism of action; cited from earlier work
[4] = cited from earlier work
nonhuman primates = settings: cited from earlier work
rats = settings: cited from earlier work
[5] = tested on: TGF-B1-induced lung fibrosis; settings: in vivo; cited from earlier work
[6] = in vivo; cited from earlier work
[7] = tested on: plasminogen activator inhibitor type 1 (PAI-1); settings: in vivo; cited from earlier work

Sequence of PAI-1 (P05121 24-402, species assumed): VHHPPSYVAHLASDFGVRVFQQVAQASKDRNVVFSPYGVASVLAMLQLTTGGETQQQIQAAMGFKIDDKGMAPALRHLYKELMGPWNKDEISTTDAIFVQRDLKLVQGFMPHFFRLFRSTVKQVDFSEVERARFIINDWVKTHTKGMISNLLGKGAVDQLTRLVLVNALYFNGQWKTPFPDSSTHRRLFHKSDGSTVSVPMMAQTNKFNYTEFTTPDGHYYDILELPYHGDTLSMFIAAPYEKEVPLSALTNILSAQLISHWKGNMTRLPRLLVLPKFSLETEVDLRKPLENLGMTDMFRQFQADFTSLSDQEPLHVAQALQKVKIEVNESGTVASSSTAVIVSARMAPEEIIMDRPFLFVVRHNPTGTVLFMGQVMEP

**Q.** For `C[C@]12C[C@H](O)[C@H]3[C@@H](CCC4=CC(=O)CC[C@@]43C)[C@@H]1CC[C@@H]2C(=O)CO` [Cort, corticosterone], which PTSD-like memory impairments (C57BL/6J mice; Cort 2 mg/kg i.p. immediately after conditioning) is on record?
**A.** PTSD-like memory impairments appeared

**Q.** And the “expression of PAI-1 mRNA” value (PC12 cells; qPCR)?
**A.** strongly increased

**Q.** And the “expression of PAI-1 protein” value (PC12 cells; western blot)?
**A.** strongly increased

**Q.** And the “tPA, P-TrkB and P-Erk1/2MAPK proteins” value ([1]; Cort 10 nM, 1 h after treatment)?
**A.** increase

**Q.** What about the PAI-1 protein ([1]; Cort 10 nM, 3 h after treatment) of the same molecule?
**A.** increase

**Q.** And the PAI-1 protein ([1]; Cort 1000 nM, 1 h after treatment)?
**A.** early increase

**Q.** What about the “tPA, P-TrkB and P-Erk1/2MAPK proteins” value ([1]; Cort 1000 nM, after 3 h treatment) of the same molecule?
**A.** suppression of the increase

**Q.** Which “activity of rat PAI-1” value (rat PAI-1) does the source give for `O=C1S/C(=C\c2cc(O)c(O)c(O)c2)C(=O)N1Cc1ccc(Cl)c(Cl)c1` [IMD-1622, 3-(3,4-dichlorobenzyl)-5-(3,4,5-trihydroxy-benzylidene)-thiazolidine-2,4-dione] here?
**A.** inhibit

**Q.** And the “activity of mouse PAI-1” value (mouse PAI-1)?
**A.** inhibit

**Q.** And the thrombus weight (rat [2]; compared to control)?
**A.** decreased

**Q.** What about the intimal thickening (rat [2]; rat, in vivo) of the same molecule?
**A.** suppressed

**Q.** What about the rat autoimmune myocarditis (rat [3]) of the same molecule?
**A.** suppresses

**Q.** Which PAI-1 activity (PAI-1) does the source give for `CCCCCc1c(-c2ccc3cc(OCc4nnn[nH]4)ccc3c2)n(Cc2ccccc2)c2ccccc12` [PAI-749, 1-benzyl-3-pentyl-2[-(1H-tetrazol-5-ylmethoxy)naphthalene-2-yl]-1Hindole] here?
**A.** neutralize PAI-1 activity

**Q.** For `O=C(CCCCC(=O)Nc1scc(-c2cccs2)c1C(=O)O)Nc1scc(-c2cccs2)c1C(=O)O` [TM5007], which oral pharmacokinetic profile [4] is on record?
**A.** not ideal

**Q.** Which antithrombotic ability (nonhuman primates) does the source give for `O=C(COCC(=O)N1CCN(C(c2ccccc2)c2ccccc2)CC1)Nc1ccc(Cl)cc1C(=O)[O-].[Na+]` [TM5275] here?
**A.** effective antithrombotic ability

**Q.** What about the oral pharmacokinetic profile [4] of the same molecule?
**A.** improved oral pharmacokinetic properties

**Q.** What about the antithrombotic ability (rats) of the same molecule?
**A.** effective antithrombotic ability

**Q.** And the TGF-B1-induced lung fibrosis [5]?
**A.** blocks

**Q.** Which “appearance of PTSD-like memory in Cort-treated animals” value (C57BL/6J mice; Tiplaxtinin 5 ng/side intra-hippocampal immediately after conditioning, Cort 2 mg/kg i.p., freezing tested 24 h later) does the source give for `O=C(O)C(=O)c1cn(Cc2ccccc2)c2ccc(-c3ccc(OC(F)(F)F)cc3)cc12` [Tiplaxtinin, 1H-indole-3-acetic acid, a-oxo-1-(phenylmethyl)-5-(4-trifluoromethoxyphenyl)] here?
**A.** prevented the appearance of PTSD-like memory; also recorded: normalizes traumatic memory

**Q.** For `CNCCC(Oc1ccc(C(F)(F)F)cc1)c1ccccc1` (stereo not drawn) [fluoxetine], which “benefit in PTSD over placebo” value [6] is on record?
**A.** small to modest benefit

**Q.** For `Fc1ccc([C@@H]2CCNC[C@H]2COc2ccc3c(c2)OCO3)cc1` [paroxetine], which “benefit in PTSD over placebo” value [6] is on record?
**A.** small to modest benefit

**Q.** For `COc1ccc(C(CN(C)C)C2(O)CCCCC2)cc1` (stereo not drawn) [venlafaxine], which “benefit in PTSD over placebo” value [6] is on record?
**A.** small to modest benefit

**Q.** For Defibrotide, which “circulating levels of plasminogen activator inhibitor type 1 (PAI-1)” value [7] is on record?
**A.** reduces

B1: mature BDNF: recombinant human BDNF, CAS 218441-99-7 (protein, UniProt P23560 19-247, looked up)
Neurotrophic factor BDNF …: APMKEANIRGQGGLAYPGVRTHGTLESVNGPKAGSRGLTSLADTFEHVIEELLDEDQKVRPNEENNKDADLYTSRVMLSSQVPLEPPLLFLLEEYKNYLDAANMSMRVRRHSDPARRGELSVCDSISEWVTAADKKTAVDMSGGTVTVLEKVPVSKGQLKQYFYETKCNPMGYTKEGCRGIDKRHWNSQCRTTQSYVRALTMDSKKRIGWRFIRIDTSCVCTLTIKRGR
**Q.** With B1 as the molecule, how does the “reversal of the effect of PAI-1 on fear memory” value (C57BL/6J mice; mature BDNF 100 ng/side concomitant with PAI-1 240 ng/side, intra-hippocampal) read?
**A.** completely reversed
